Reference: patent US5932483A, “Synthetic peptide and its uses” (Northwestern University, priority 1996, dated 1999)
Several values for one entry are separate records, joined by “and”; a condition that tells them apart may be missing. Equal entries are not always repeated. Where two headings read alike, the source gives them in different places. No end group written: not given here.

Experiments:
[1] = test system: sensitized sheep erythrocytes (SRBCs), human serum as complement; experiment: Sheep red blood cell lysis assay (SRBC assay); type: cell-based
[2] = test system: pig aorta endothelial cells (PAECs), human serum; experiment: Chromium release assay (PAEC assay); type: cell-based
Protocol: Culture plates (Falcon 24-well plates, Becton Dickinson, Lincoln Park, N.J.) were coated by addition of 0.5 ml/well of 2% gelatin (Type B, from bovine skin, Sigma Chemical Co.) diluted 1:10 in Hanks buffered salt solution (Gibco BRL, Grand Island, N.Y.), followed by incubation for 15 min at room temperature. The gelatin solution was removed, and 125×10^3 pig aorta endothelial cells (PAECs, Cell Systems, Kirkland, Wash.) in 2 ml of cell culture medium (CCM, Dulbecco's modified Eagle's medium (DMEM) with high glucose (Gibco BRL) containing 20% defined fetal bovine serum (FBS, HyClone Laboratories, Logan, Utah) that had been heat inactived for 30 min at 56° C., 1%(v/v) L-glutamine (200 mM, Gibco BRL) and penicillin G sodium (10,000 units/ml)/streptomycin sulfate (10,000 μg/ml in 0.85% saline, Gibco BRL)] were added per well. The plate was centrifuged in a model GS-6R Beckman table top centrifuge at 20×g for 2 min with the brake off to settle the cells onto the gelatin in a even monolayer, after which the plate was incubated at 37° C. in 5% CO2 -95% air. After 4 hours, cell attachment had occurred, and the CCM was removed and replaced with 2 ml of fresh CCM. In 2-4 days the PAECs had grown to 80-100% confluence and were used in the complement mediated chromium release assay.
The PAECs were washed 3 times with 1 ml of serum free medium (SFM), leaving the SFM on the cells for 5 min each time. Chromium radioisotope (^51 Cr, NaCrO4, Amersham Corp., Arlington Heights, Ill.) was diluted in SFM to give 40 μCi/ml, and 100 μl were added to each well of the PAEC culture plate. The plate was incubated for 2 hours at 37° C. in 5% CO2 -95% air. The wells were washed three times with 1 ml of SFM. Then, 1 ml of PBS was added to each well, and the plate was incubated at 37° C. for 30 min to help reduce ^51 Cr background.
The various peptide inhibitors (diluted in SFM) were added (300 μl/well) and incubated with the PAECs at 37° C. for 30 min. Undiluted human serum (HS, 100 μl) or 100 μl of heat inactivated human serum (HIHS) was added to each well, and the plate was incubated at 37° C. for 1 hour. Supernatant (200 μl) was removed from each well and added to 200 μl of scintillation cocktail (OptiPhase `Supermix`, Wallac Inc., Turku, Finland) previously added to each well of a 24-well polyethylene terephtalate reading plate (Wallac Inc.), and the plate was sealed with an acetate plate sealer (Dynatech Laboratories, Chantilly, Va.). The reading plate was placed on a shaker for 5 min to obtain a homogeneous mixture. Radioactivity (CPMs) of the wells was counted for 2 min using the 1450 MicroBeta PLUS plate reader (Wallac Inc.).
Total counts of ^51 Cr were determined from 200 μl aliquots taken from the wells to which 100 μl of 5% Triton X-100 (Sigma Chemical Co.) had been added. Total complement mediated lysis was determined from wells treated with HS alone, and background counts were determined from wells treated with HI-HS alone or with peptide alone (no HS). The average background was subtracted from all well counts, and the percent inhibition calculated as total lysis minus lysis with inhibitor/total lysis multiplied by 100. All experimental points were obtained in triplicate, and the data were analyzed in the same manner as the data from the SRBC assays.

[3] = target: binding of rabbit Ig-HRP to solid phase C1q; experiment: Inhibition of binding of Ig-HRP to solid phase C1q
Protocol: C1q (gift of Dr. Lawrence Potempa, Immtech International Inc., Evanston, Ill.) diluted to 10 μg/ml in coating buffer was placed in the wells of a microtiter plate (100 μl/well) and incubated for 2 hours at 25° C. The uncoated surfaces of the wells were blocked by adding 340 μl PBSC and incubating the plate for 1 hour at 25° C., followed by washing 3 times with PBSC. Dilutions of Ig-HRP in C1q buffer (50 mM Tris, pH 7.2, 27 mM NaCl, 1 mM CaCl2, 0.01% (wt/v) Thimerosal) were incubated in the wells (100 μl/well) for 1 hour at 25° C. followed by washing 3 times with C1q buffer. OPD substrate buffer was then added (100 μl/well), and the colored product was measured at 414 nm in a Titertek Multiskan plate reader.
C1q was coated onto the surface of the wells of a microtiter plate as described in Part C. […] OPD substrate buffer (100 μl/well) was then added and the colored product measured at 414 nm in a Titertek Mutiskan plate reader.

[4] = test system: PAP binding to solid phase CBP2; experiment: Elution or inhibition of PAP binding to the CBP2 column by solution peptide; set-up: species or system rabbit; conditions: for PAP binding to solid phase CBP2 after pre-incubation with peptide: 0.1 mM peptide, 1 hour 25° C., PAP 20 μg/ml; for elution of bound PAP from CBP2 column by peptide wash: 3 ml of 336.2 μg/ml CBP2 or equimolar LHRH
Protocol: An additional 6 ml of C1q buffer was used to wash the column followed by 3 ml of 2% (v/v) acetic acid and then with 6 ml of C1q buffer to completely wash the column.
The sample was then eluted with 21 ml C1q buffer followed by 3 ml of 2% (v/v) acetic acid and then 6 ml C1q buffer. The column fractions were assayed for the presence of peroxidase as described above in Part A, and the concentration of PAP was calculated from the standard curve data.
This was not the case, however, since similar concentrations were used for column elution as for the pre-incubation studies. […] Thus, the effect of aggregates, if they formed, was of little significance.

HRP enzyme = target: T1, HRP enzyme (Armoracia rusticana, UniProt P00433); experiment: Control: effect of CBP2 on the HRP enzyme; type: biochemical, horseradish; conditions: 50 μM CBP2, 3 hours 37° C.
T1 construct: purchased Zymed Laboratories, Inc
Protocol: 1. […] Aliquots of 100 μl were placed in the wells of a microtiter plate and an equal volume of OPD substrate buffer was added, and the colored product was measured at 414 nm.

[5] = test system: guinea pig hearts transplanted into C6 deficient PVG rats; experiment: Heterotopic heart transplantation; type: in vivo, rat; conditions: pump 2ML4 (15.6 mg CBP2) plus i.v. 15.6 mg on day 2; 2 rats, individual values
Protocol: Four to six week old guinea pigs (GP, Harlan, Indianapolis, Ind.) hearts were transplanted into C6 deficient PVG rats (B&K, Kent, Wash.) by a modification of the technique described by Ono and Lindsay (Journal of Thoracic Cardiovascular Surgery, 57, 225, 1969). Seven of the rats receiving GP hearts were not treated, 8 additional rats receiving GP hearts were treated with a single pre-transplant intravenous injection of a 3 ml cocktail of CBP3 [SEQ ID NO:4] (0.67 mg/ml) and 1.03 mg/ml of AEK [SEQ ID NO:5]. CBP3, 15.4 mg, was dissolved in 1.1 ml of 60% DMF in H2 O and AEK, 10 mg, was dissolved on 0.5 ml H2 O. Two hundred μl of CBP3 and 100 μl of AEK were added to 2.7 ml of 1:5 diluted (in PBS) heat-inactivated PVG C6 deficient rat serum. The GP transplanted hearts were monitored several times daily, and the times noted when the hearts stopped beating.
Two additional PVG C6 deficient rats were transplanted with GP hearts.
In a separate experiment, two C6 deficient PVG rats were transplanted with GP hearts.

[6] = test system: binding of rabbit Ig-HRP by solid phase Protein A; experiment: Inhibition of binding of Ig-HRP to solid phase Protein A
Protocol: Protein A (recombinant Protein A from Repligen, Cambridge, Mass.) diluted to 1 μg/ml in coating buffer (0.1M NaHCO3, pH 9.0) was incubated in the wells of a microtiter plate (100 μl per well) for 2 hours at 37° C. Uncoated surfaces of the wells were blocked by adding 340 μl PBSC (9 mM Na2 HPO4, 1 mM NaH2 PO4, pH 7.2, 154 mM NaCl, 1 mg/ml casein or ovalbumin, and 0.01% thimerosal), incubating the plate 1 hour at 37° C., and then washing the wells 3 times with PBSCT (PBSC plus 0.1% Tween 20 (polyoxyethylene sorbitan monolaurate)). Dilutions of rabbit immunoglobulin labeled with horseradish peroxidase (Ig-HRP) (Zymed Laboratories, Inc., South San Francisco, Calif.) in PBS (9 mM Na2 HPO4, 1 mM NaH2 PO4, pH 7.2, 154 mM NaCl) were incubated in the wells (100 μl per well) for 2 hours at 37° C. followed by washing 3 times with PBS. OPD substrate buffer (0.8 mg/ml o-phenylenediamine, 0.1M Na2 HPO4, 0.05M sodium citrate, pH 5.5, plus 0.15% (v/v) H2 O2) was then added to the wells (100 μl/well), and the resultant colored product was measured with a Titertek Multiskan plate reader using a 414 nm filter.
OPD substrate buffer was then added (100 μl/well), and the resulting colored product was measured at 414 nm in a Titertek Multiskan plate reader.
8. […] Then the inhibition assay using solid phase Protein A was performed as described above.

[7] = test system: human C1q binding to PAECs; experiment: Immunohistochemical staining of PAECs for binding of human C1q; type: cell-based; conditions: CBP2 1.2 mM
Protocol: PAECs (1×10^4) in 1 ml of CCM were added to each well of a 4-chamber culture slide (Labtek, Nunc, Naperville, Ill.), and the cells were grown to confluence (incubation for 3 days at 37° C. in 5% CO2 -95% air). The medium was removed, and the slide was washed with PBS (10 mM phosphate buffered saline, pH 7.4, containing 120 mM NaCl and 2.7 mM KCl, Sigma Chemical Co.) in a swirling motion for 5 sec. This was repeated with distilled water and 100% ethanol. The slide was tapped dry and immersed in pre-chilled (-20° C.) acetone for 20 min and then air dried.
HI-HS was added to the wells, and the slide was incubated for 15 min at 37° C. to allow human IgG and IgM antibodies to bind to PAEC epitopes. The HI-HS was removed, and the wells were washed 3 times with PBS. C1q or C1q plus peptide in PBS containing 1% bovine serum albumin (BSA, Sigma Chemical Co.) (PBSA) was then added, and the slide was incubated for 15 min at room temperature. The solutions were removed, and the wells were washed 3 times with PBS. Blocking serum was added [10% donkey serum (The Binding Site, Birmingham, England) in PBS], and the slide was incubated for 20 minutes at room temperature. […] Staining of the cells was analyzed on a Zeiss Axioskop (Carl Zeiss, Oberkochen, Germany) with a wide band FITC filter.

[8] = highest concentration (1 mM) tested
[9] = same concentration range as CBP2

Sequence of PAP binding to solid phase CBP2 (P01870 whole entry): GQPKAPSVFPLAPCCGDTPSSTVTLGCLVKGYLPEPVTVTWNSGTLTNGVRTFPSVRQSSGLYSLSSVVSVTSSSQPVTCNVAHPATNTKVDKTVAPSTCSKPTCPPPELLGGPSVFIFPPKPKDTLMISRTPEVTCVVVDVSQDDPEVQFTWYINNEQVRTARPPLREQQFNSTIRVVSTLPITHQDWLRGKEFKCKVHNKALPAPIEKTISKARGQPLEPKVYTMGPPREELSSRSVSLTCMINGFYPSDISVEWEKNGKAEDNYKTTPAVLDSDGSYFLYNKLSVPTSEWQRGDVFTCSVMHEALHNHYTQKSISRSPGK
T1 sequence (P00433 31-338 limits assumed): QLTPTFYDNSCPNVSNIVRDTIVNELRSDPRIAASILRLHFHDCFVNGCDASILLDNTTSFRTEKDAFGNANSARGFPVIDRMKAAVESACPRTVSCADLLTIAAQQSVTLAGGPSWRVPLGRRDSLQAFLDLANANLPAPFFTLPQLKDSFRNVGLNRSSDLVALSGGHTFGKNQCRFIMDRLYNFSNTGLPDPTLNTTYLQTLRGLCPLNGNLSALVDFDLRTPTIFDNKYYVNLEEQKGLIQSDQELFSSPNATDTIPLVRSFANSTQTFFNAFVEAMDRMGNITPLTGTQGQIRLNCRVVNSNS
T1 sequence (P01870 whole entry partner): as the sequence (P01870 whole entry) above
T1 sequence (P01840 whole entry partner): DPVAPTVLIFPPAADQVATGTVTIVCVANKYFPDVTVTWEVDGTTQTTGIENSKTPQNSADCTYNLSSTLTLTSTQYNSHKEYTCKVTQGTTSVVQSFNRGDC

Q: “Ac-AEAKAKA-NH2 [AEK, Ac-Ala Glu Ala Lys Ala Lys Ala-NH2]” was tested. Which “inhibitory activity in the SRBC assay” value [1, 8] did it give?
A: no inhibitory activity

Q: And the “inhibitory activity in the PAEC assay” value [2, 8]?
A: no inhibitory activity

Q: How did the IC50 ([3]; read-out: 50% inhibition concentration for liquid phase C1q inhibiting solid phase C1q) turn out when “C1q: complement component C1q, gift of Immtech International, liquid phase positive control” was run?
A: ~10 nM

Q: Which results are given for “LEQGENVFLQATLLC [CBP2, C1q B chain residues 189-200 plus Leu Leu Cys at the carboxyl terminus]”?
A: PAP binding to solid phase CBP2 after pre-incubation with peptide [4]: dramatic loss of PAP binding; elution of bound PAP from CBP2 column by peptide wash [4]: small but significant PAP peak which was eluted from the column; inhibition of PAP binding to CBP2 column ([4]; PAP pre-incubated with 156 μg/ml CBP2): approximately 40%; effect on the HRP enzyme (HRP enzyme): did not inhibit the HRP enzyme; % Inhibition SRBC Assay +/- S.D. ([1]; 31 μM): 0.0 +/- 0.0%; % Inhibition SRBC Assay +/- S.D. ([1]; 62.5 μM): 13.5% and 13.5 +/- 9.3%; % Inhibition SRBC Assay +/- S.D. ([1]; 125 μM): 45.2 +/- 30.8%; % Inhibition SRBC Assay +/- S.D. ([1]; 250 μM): 78.0 +/- 18.3%; % Inhibition SRBC Assay +/- S.D. ([1]; 1000 μM): 97.4 +/- 2.7%; Graft Survival [5]: 4 days and 5 days; % Inhibition PAEC Assay +/- S.D. ([2]; 31 μM): 2.0 +/- 3.1%; % Inhibition PAEC Assay +/- S.D. ([2]; 62.5 μM): 10.6% and 10.6 +/- 13.5%; % Inhibition PAEC Assay +/- S.D. ([2]; 125 μM): 25.0 +/- 14.8%; % Inhibition PAEC Assay +/- S.D. ([2]; 250 μM): 64.4 +/- 8.4%; % Inhibition PAEC Assay +/- S.D. ([2]; 500 μM): 87.2% and 87.2 +/- 3.8%; inhibition of Protein A binding of Ig-HRP (maximum) [6]: ~100%; effect of DTT on the inhibitory activity of CBP2 ([6]; 4 mg/ml DTT, 2 hours 37° C., solid phase Protein A): no effect; IC50 ([6]; Ig-HRP 1:5000 in PBS, preincubated 1 hour 37° C., read-out: concentration at 50% inhibition of Protein A binding of Ig-HRP): ~1000 nM; IC50 ([3]; Ig-HRP 1:100 in C1q buffer, 25° C., read-out: 50% inhibition concentration, Ig-HRP binding to solid phase C1q): ~10000 nM; C1q binding to PAECs (immunohistochemical staining) [7]: only trace binding of C1q

Q: “Protein A: recombinant Protein A from Repligen, positive control in solution phase [reference compound]” was tested. Which IC50 ([6]; Ig-HRP binding to solid phase Protein A, read-out: 50% inhibition concentration for solution phase Protein A) did it give?
A: 1 nM

Q: With “luteinizing hormone releasing hormone [LHRH, reference compound]” as the substance, how does the “PAP binding to solid phase CBP2 after pre-incubation with peptide” value [4] read?
A: PAP binding to the column in the range normally observed

Q: What about the “elution of bound PAP from CBP2 column by peptide wash” value [4] of the same substance?
A: no significant elution of PAP

Q: And the “Protein A inhibitory activity” value [6, 9]?
A: no Protein A or C1q inhibitory activity

Q: What about the C1q inhibitory activity [3, 9] of the same substance?
A: no Protein A or C1q inhibitory activity
